The values that follow come from PubChem BioAssay (NCI).

Test systems include HOP-92 NSCLC; SF-295 CNS; A498 renal; KM12 colon; UACC-257 melanoma; NCI-H226 lung; OVCAR-3 ovarian; K-562 leukemia; 786-0 renal; LOX IMVI melanoma; SF-539 CNS; NCI-H460 lung; UO-31 renal; SNB-19 CNS; RXF 393 renal; HOP-62 NSCLC.
What all share (assay): inhibition of tumour cell growth, NCI panel, 48 h

Each structure is given as a SMILES string.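 Interpolation was linear, between the two tested concentrations surrounding the appropriate level; five concentrations were tested over 48 hours in 96-well plates. TGI is the concentration that stops growth completely.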

In the case of `O=C(Nc1ccccc1-c1nc2ccccc2[nH]c1=O)c1ccccc1`, the TGI with HOP-92 NSCLC was 51.4 µM; with SF-295 CNS it was 47.4 µM; in the test with A498 renal it was 51.3 µM; with KM12 colon, more than 100 µM; in the test with UACC-257 melanoma it was more than 100 µM; with NCI-H226 lung, 60.1 µM. In addition, the TGI in the test with OVCAR-3 ovarian was 44 µM; with K-562 leukemia, more than 100 µM; in the test on 786-0 renal it was 31 µM; in the test with LOX IMVI melanoma, 61.9 µM; with SF-539 CNS, 49.6 µM; in the test on NCI-H460 lung, 47.1 µM. Also, the TGI stood at 38.3 µM in the test with UO-31 renal, 60.1 µM with SNB-19 CNS, 43.6 µM in the test with RXF 393 renal and 35.9 µM in the test on HOP-62 NSCLC.
As to `C[Si](C)(C)OC1CC(=O)OC1n1cc(F)c(=O)[nH]c1=O` (stereo not given), the TGI in the test on SF-295 CNS, in the test with A498 renal, in the test with KM12 colon, in the test on UACC-257 melanoma, in the test on NCI-H226 lung and with OVCAR-3 ovarian was more than 100 µM in each case. Besides, the TGI in the test with K-562 leukemia was more than 100 µM; in the test on 786-0 renal it was more than 100 µM; in the test with LOX IMVI melanoma it was 32.5 µM; in the test with SF-539 CNS, more than 100 µM; in the test with NCI-H460 lung, more than 100 µM; in the test on UO-31 renal, more than 100 µM. For the same molecule, the TGI in the test on SNB-19 CNS was more than 100 µM; with RXF 393 renal it was 98.4 µM; with HOP-62 NSCLC, more than 100 µM.
Regarding `CC1=CCC(O)C=CC(C)C(O)C(C)C=C(C)C(=O)c2c(O)c(C)cc3c2C(=O)C(N)=C(NC(=O)/C=C\C=C/C=CC(C)C(O)CC1=O)C3=O` (stereo not given), the TGI with HOP-92 NSCLC, in the test on SF-295 CNS, in the test on A498 renal, in the test with KM12 colon, in the test on UACC-257 melanoma and with NCI-H226 lung was more than 100 µM each time. The TGI in the test on OVCAR-3 ovarian, in the test with K-562 leukemia, with 786-0 renal, in the test on LOX IMVI melanoma, with SF-539 CNS and in the test on UO-31 renal was more than 100 µM in each case. Besides, the TGI in the test with SNB-19 CNS and in the test on HOP-62 NSCLC was more than 100 µM in each case.
As to `Cc1cc(N(CCC#N)CCC#N)ccc1/C=C(\NC(=O)/C=C/c1ccccc1)C(N)=O`, the TGI in the test on SF-295 CNS, with A498 renal, in the test with KM12 colon, with UACC-257 melanoma, in the test with NCI-H226 lung and in the test with OVCAR-3 ovarian was more than 100 µM throughout. Besides, the TGI with K-562 leukemia, with 786-0 renal, in the test on LOX IMVI melanoma, in the test with SF-539 CNS, in the test on NCI-H460 lung and in the test with UO-31 renal was more than 100 µM throughout. For the same molecule, the figures for the TGI in the test with SNB-19 CNS, with RXF 393 renal and with HOP-62 NSCLC were more than 100 µM, 21 µM and more than 100 µM, respectively.
For the molecule `O=C1C2C3C=C4c5ccccc5N(c5ccccc5)C4(C2C(=O)N1c1ccc([N+](=O)[O-])cc1)[C@H]1C(=O)N(c2ccc([N+](=O)[O-])cc2)C(=O)[C@@H]31` (stereo not given in full), the TGI with HOP-92 NSCLC, with SF-295 CNS, in the test on A498 renal, in the test on KM12 colon, in the test with UACC-257 melanoma and in the test on NCI-H226 lung was more than 100 µM throughout. In addition, the TGI with OVCAR-3 ovarian, in the test on K-562 leukemia, in the test with 786-0 renal, in the test on LOX IMVI melanoma, with SF-539 CNS and in the test with NCI-H460 lung was more than 100 µM in each case. For the same molecule, the TGI with UO-31 renal, in the test on SNB-19 CNS, in the test with RXF 393 renal and in the test with HOP-62 NSCLC was more than 100 µM throughout.
With `Nc1nc([O-])c2c(n1)[n+](C1OC(CO)C(O)C1O)cn2CCO` (stereo not given), the TGI with HOP-92 NSCLC, in the test on SF-295 CNS, in the test with A498 renal, with KM12 colon, with UACC-257 melanoma and with NCI-H226 lung was more than 100 µM in each case. Moreover, the TGI in the test on OVCAR-3 ovarian, in the test on K-562 leukemia, in the test with 786-0 renal, in the test with LOX IMVI melanoma, with SF-539 CNS and with NCI-H460 lung was more than 100 µM throughout. In addition, the TGI in the test with UO-31 renal, in the test with RXF 393 renal and in the test on HOP-62 NSCLC was more than 100 µM in each case.
In the case of `COC(=O)C(Cc1nc2ccccc2[nH]c1=O)C(NO)C(=O)Nc1c(Cl)cc([N+](=O)[O-])cc1Cl` (stereo not given), the TGI is 25.7 µM with HOP-92 NSCLC; more than 100 µM with SF-295 CNS; 46.5 µM with A498 renal; more than 100 µM with KM12 colon; more than 100 µM in the test with UACC-257 melanoma; more than 100 µM in the test on OVCAR-3 ovarian. Further, the TGI is more than 100 µM in the test on K-562 leukemia; more than 100 µM with 786-0 renal; 56.5 µM with SF-539 CNS; 44.7 µM in the test on NCI-H460 lung; more than 100 µM in the test on UO-31 renal; more than 100 µM in the test on SNB-19 CNS. For the same molecule, the figures for the TGI with RXF 393 renal and with HOP-62 NSCLC were 50.2 µM and more than 100 µM, respectively.
For `Cc1cc(NS(=O)(=O)c2ccc(Nc3c4ccccc4nc4c(C(=O)N5CCN(CCO)CC5)cccc34)cc2)no1`, the TGI in the test on HOP-92 NSCLC, in the test with SF-295 CNS, in the test with A498 renal, in the test with KM12 colon, with UACC-257 melanoma and with NCI-H226 lung was more than 100 µM each time. In addition, the TGI with OVCAR-3 ovarian, with K-562 leukemia, in the test on 786-0 renal, in the test on LOX IMVI melanoma, in the test with SF-539 CNS and in the test with NCI-H460 lung was more than 100 µM each time. In addition, the TGI in the test with UO-31 renal, in the test with SNB-19 CNS, in the test with RXF 393 renal and with HOP-62 NSCLC was more than 100 µM throughout.
Take `CCOC(=O)CC(C)C1(C(=O)OCC)CCCCC1=O` (stereo not given): the TGI in the test with SF-295 CNS, with A498 renal, in the test with KM12 colon, in the test with UACC-257 melanoma, in the test with NCI-H226 lung and in the test on OVCAR-3 ovarian was more than 100 µM throughout. Further, the TGI with K-562 leukemia, with 786-0 renal, in the test with LOX IMVI melanoma, in the test with SF-539 CNS, with NCI-H460 lung and in the test on UO-31 renal was more than 100 µM in each case. Further, the TGI in the test on SNB-19 CNS, in the test with RXF 393 renal and in the test with HOP-62 NSCLC was more than 100 µM in each case.
As to `O=Cc1ccccc1COC(=O)c1cc(C(=O)OCc2ccccc2C=O)c(C(=O)OCc2ccccc2C=O)cc1C(=O)OCc1ccccc1C=O`, the TGI in the test on HOP-92 NSCLC, in the test on SF-295 CNS, with A498 renal, in the test with KM12 colon, with UACC-257 melanoma and with NCI-H226 lung was more than 100 µM throughout. For the same molecule, the TGI with OVCAR-3 ovarian, in the test with K-562 leukemia, with 786-0 renal, in the test with LOX IMVI melanoma, in the test with SF-539 CNS and in the test on NCI-H460 lung was more than 100 µM throughout. Besides, the TGI in the test with UO-31 renal, with SNB-19 CNS and in the test with RXF 393 renal was more than 100 µM in each case.
For `O=c1cc(-c2ccc(Oc3ccccc3)cc2)[nH]c2cc3c(cc12)OCO3`, the TGI with SF-295 CNS, with A498 renal, with UACC-257 melanoma, in the test on NCI-H226 lung, with OVCAR-3 ovarian and with K-562 leukemia was more than 100 µM in each case. Moreover, the TGI in the test with 786-0 renal, in the test on LOX IMVI melanoma, with SF-539 CNS, with NCI-H460 lung, with UO-31 renal and in the test on SNB-19 CNS was more than 100 µM each time. In addition, the TGI with RXF 393 renal and in the test on HOP-62 NSCLC was more than 100 µM each time.
In the case of `O=C(CC(=O)n1nc(-c2ccccc2)c(N=Nc2ccc(Cl)cc2)c1-c1ccccc1)Nc1ccc(Cl)cc1`, the TGI with HOP-92 NSCLC, in the test with SF-295 CNS, in the test on A498 renal, with KM12 colon, in the test on UACC-257 melanoma and in the test with NCI-H226 lung was more than 100 µM throughout. In addition, the TGI in the test with OVCAR-3 ovarian is more than 100 µM; in the test on K-562 leukemia, more than 66.2 µM; in the test on 786-0 renal, more than 61.1 µM; in the test on LOX IMVI melanoma, more than 56.9 µM; in the test on SF-539 CNS, more than 100 µM; in the test with NCI-H460 lung, more than 59.4 µM. The TGI in the test on UO-31 renal, in the test with SNB-19 CNS and with HOP-62 NSCLC was more than 100 µM each time.
Turning to `O=C(Nc1cc(Cl)c(Cl)cc1Cl)C(=O)C1C(=O)NC(=S)NC1=O`, the TGI in the test on HOP-92 NSCLC, in the test on SF-295 CNS, in the test with A498 renal, in the test on KM12 colon, in the test on UACC-257 melanoma and with NCI-H226 lung was more than 100 µM in each case. For the same molecule, the TGI with K-562 leukemia, in the test with 786-0 renal, in the test on LOX IMVI melanoma, with SF-539 CNS, in the test with NCI-H460 lung and in the test with UO-31 renal was more than 100 µM each time. For the same molecule, the TGI in the test with SNB-19 CNS, in the test on RXF 393 renal and with HOP-62 NSCLC was more than 100 µM each time.
